Where “and” joins values, the source holds several entries; their conditions need not be identical. Equal values may be shown once. Read-outs that look alike come from different tables or passages of the source.
Key:
[1] = Pharmacokinetic study of long acting preparation in Beagle dogs; type: in vivo, Beagle dog
Protocol: Six Beagle dogs were used. Five Beagle dogs were intramuscularly injected with 30 mg/kg long acting sebacoyl dinalbuphine ester parenteral administration respectively, and another one was injection with 100 mg/kg long acting sebacoyl dinalbuphine ester oily parenteral administration. Blood samples were collected through the vein in front limb of dogs at 1, 2, 6, 24, 30, 48, 54, 72, 78, 96, 102, 120, 168, 192 hours. […] Relationship between time and concentration was analyzed by PCNONLIN computer program. Two compartment model and pharmacokinetic parameters were calculated to depicted absorption, distribution, metabolism, and excretion of drugs in dogs.

[2] = Half-life / conversion of dinalbuphine sebacoyl ester in dog blood; type: in vitro ADME; details: for Elimination half-life: n = 3, mean ± S.E.
Protocol: (a) Dinalbuphine sebacoyl ester was dissolved in acetonitrile, the concentration was 12.5 mg/ml.
(b) 200 ml of whole blood collected from rats given dinalbuphine sebacoyl ester, and anticoagulant was added.

[3] = Half-life / conversion of dinalbuphine sebacoyl ester in rat blood; type: in vitro ADME; details: for Elimination half-life: n = 3, mean ± S.E.
Protocol: (a) Dinalbuphine sebacoyl ester(SDN) was dissolved in acetonitrile, the concentration was 7.75 mg/ml.
(b) […] of whole blood was collected from rats given dinalbuphine sebacoyl ester, and anticoagulant was added.

Sprague Dawley rats = assay: Analgesic effect, cold ethanol bath tail flick test, intramuscular, rats; type: in vivo, rat
Protocol: Sprague Dawley rats(175 to 225 g) were used. Each group consisted of 6 rats and each rats was injected once intramuscularly on the rear leg. […]
The dose for each rat was 25 micromole per kg, intramuscularly.
In the experiment, a circulating cold ethanol bath with a temperature maintained at -20° C. was set up. After dosing, the rat tail(1/3 from the tip) was immersed in the bath. The latency for the rat to flick its tail from the bath was measured to be the nociceptive threshold. The effect of various opium alkaloid preparations can be determined with this test.
The nociceptive effect can be calculated as follows: [formula]
35, 25, 15 minutes before dosing, Male Sprague Dawley rat(175-225 g) was tested to measure the basic response latency. The time to top the experiment was set at 40 seconds to prevent the tail from cold sore. No cold sore were found in 40 sec. Five minutes after the drug was given to the rat, the flick test was performed every 10 minutes or more. […]
(c) Dinalbuphine sebacoyl ester, dose was 7.8125 μ/kg, 31.25 μM/kg, 125 μM/kg.
(d) 50 mg/ml dinalbuphine sebacoyl ester parenteral dosage forms, dinalbuphine sebacoyl ester was prepared in sesame oil.

[4] = Half-life / conversion of dinalbuphine sebacoyl ester in rabbit blood; type: in vitro ADME; details: for Elimination half-life: n = 3, mean ± S.E.
Protocol: II. For Rabbit Experiments
(a) Dinalbuphine ester sebacoyl ester was dissolved in acetonitrile, the concentration was 5.2 mg/ml.
(b) 150 ml of whole blood collected from rats given dinalbuphine sebacoyl ester, and anticoagulant was added.

human body = assay: Analgesic duration of sebacoyl dinalbuphine calculated for the human body; type: in vivo; details: 125 μM/23 kg
Protocol: Therefore, the analgesic effect could be calculated on 4-5 days at 125 μM/23 kg to human body for sebacoyl dinalbuphine.
Besides, such parenteral volume was not ideal for a single dose. However, this invention made a development. By diluting a single dose of sebacoyl dinalbuphine in 7.15 ml sesame oil form, parenteral administration could give the analgesic effect maintained 4 to 5 days. In other words, the analgesic effect was extended […] for a single dose of intramuscularly injected sebacoyl dinalbuphine at only 7 ml oil vehicle.

[5] = individual Dog 1 to Dog 5, lines in this order, 30 mg/kg i.m., listed as SDN, 30 mg/kg

Compound: O=C(CCCCCCCCC(=O)Oc1ccc2c3c1O[C@H]1[C@@H](O)CC[C@@]4(O)[C@@H](C2)N(CC2CCC2)CC[C@]314)Oc1ccc2c3c1O[C@H]1[C@@H](O)CC[C@@]4(O)[C@@H](C2)N(CC2CCC2)CC[C@]314 [sebacoyl dinalbuphine ester]
- MRT ([1]; dog, plasma, im, 30 mg/kg, individual Dog 1 to Dog 5, lines in this order, 30 mg/kg i.m., read-out: MRT): 84.3 h
- AUC ([1]; dog, plasma, im, 81 mg/kg, Table 7, Dog 2, Dose 81.0 mg/kg): 36200 ng·h/mL
- CL/F ([1]; dog, plasma, im, 81 mg/kg, Table 7, Dog 2, Dose 81.0 mg/kg, read-out: CLt (converted)): 1.64 mL/h/kg
- Cmax ([1]; dog, plasma, im, 81 mg/kg, Table 7, Dog 2, Dose 81.0 mg/kg, read-out: Cmax): 204 ng/mL
- bioavailability ([1]; dog, plasma, im, 81 mg/kg, Table 7, Dog 2, Dose 81.0 mg/kg, read-out: F): 73.4%
- MRT ([1]; dog, plasma, im, 81 mg/kg, Table 7, Dog 2, Dose 81.0 mg/kg, read-out: MRT): 127 h
- Vd/F ([1]; dog, plasma, im, 81 mg/kg, Table 7, Dog 2, Dose 81.0 mg/kg, read-out: Vss): 861 L/kg
- k el ([1]; dog, plasma, im, 81 mg/kg, Table 7, Dog 2, Dose 81.0 mg/kg, read-out: k10 (converted)): 0.000456 s⁻¹
- half-life ([1]; dog, plasma, im, 81 mg/kg, Table 7, Dog 2, Dose 81.0 mg/kg, read-out: t1/2,α (converted)): 0.07 h
- half-life ([1]; dog, plasma, im, 81 mg/kg, Table 7, Dog 2, Dose 81.0 mg/kg, read-out: t1/2,β (converted)): 41.9 h
- k el ([1]; dog, plasma, im, 81 mg/kg, Table 7, Dog 2, Dose 81.0 mg/kg, read-out: β (converted)): 4.72e-06 s⁻¹
- bioavailability ([1]; dog, plasma, im, Beagle dogs, intramuscular, read-out: bioavailability): ~63%
- half-life ([1]; dog, plasma, im, Beagle dogs, intramuscular, read-out: half life for excretion (converted)): ~30 h
- A [1, 5]: 20.9 μg/ml and 14.1 μg/ml (2×) and 9.5 μg/ml and 16.5 μg/ml
- AUMC [1, 5]: 934.4 h^2 μg/ml and 915.0 h^2 μg/ml and 886.2 h^2 μg/ml and 1217.4 h^2 μg/ml and 1063.0 h^2 μg/ml
- Abs. time [1, 5]: 164.5 h and 95.6 h (2×) and 49.3 h and 58.0 h
- B [1, 5]: 0.46 µg/mL and 0.22 µg/mL and 0.32 µg/mL and 0.36 µg/mL and 0.21 µg/mL
- Cmax [1, 5]: 59 ng/mL and 112 ng/mL and 197 ng/mL and 255 ng/mL and 123 ng/mL
- F [1, 5]: 87.9% and 40.4% and 59.6% and 68.8%
- MRT [1, 5]: 61.1 h and 62.7 h and 79.1 h
- Vc [1, 5]: 13.88 L/kg and 10.21 L/kg and 14.95 L/kg and 10.65 L/kg and 24.50 L/kg
- Vss [1, 5]: 360.9 L/kg and 428.1 L/kg and 303.6 L/kg and 1325 L/kg
- k12 [1, 5]: 6.16 h⁻¹ and 5.53 h⁻¹ and 21.55 h⁻¹ and 3.89 h⁻¹ and 5.43 h⁻¹
- k21 [1, 5]: 0.25 h⁻¹ and 0.13 h⁻¹ and 0.78 h⁻¹ and 0.14 h⁻¹ and 0.10 h⁻¹
- ko [1, 5]: 129.9 µg/kg/h and 149.9 µg/kg/h and 199.1 µg/kg/h and 249.5 µg/kg/h and 174.9 µg/kg/h
- t1/2,β [1, 5]: 10.94 h and 30.61 h and 28.64 h and 30.99 h and 37.26 h
- α [1, 5]: 8.54 h⁻¹ and 6.85 h⁻¹ and 23.02 h⁻¹ and 4.76 h⁻¹ and 6.74 h⁻¹
- order of absorption ([1]; injection oil vehicle, intramuscular): zero order
- kinetic linearity with dose ([1]; two doses in the same dog): linear kinetic
- Elimination half-life ([2]; dog plasma): 0.463 ± 0.0083 h
- Elimination half-life ([2]; dog red blood cell): 0.557 ± 0.0233 h
- Elimination half-life ([2]; dog whole blood): 0.508 ± 0.013 h
- converted time of 90% into Nalbuphine ([2]; dogs): 95 min
- half life ([2]; dogs, HPLC): 0.463 h
- Elimination half-life ([3]; rat plasma): 2.8 min
- Elimination half-life ([3]; rat red blood cell): 2.3 ± 0.6 min
- Elimination half-life ([3]; rat whole blood): 2.2 ± 0.5 min
- converted time of 90% into Nalbuphine ([3]; rats): 10 min
- half life ([3]; rats, HPLC): 2.8 min
- dose dependence of analgesic effect (Sprague Dawley rats; FIG. 9, rats, intramuscular, 7.8125, 31.25, 125 μM/kg): proportional to the dose administered
- time to which 50% analgesic effect was extended (Sprague Dawley rats; FIG. 10, intramuscular, 125 μM/kg): 88 h
- analgesic effect relative to Nalbuphine hydrochloride (Sprague Dawley rats; intramuscular): 8.8 times
- duration of analgesic effect (Sprague Dawley rats; rats, intramuscular, dose below 125 μM/kg): 4 to 5 days
- Elimination half-life ([4]; rabbit plasma): 0.116 ± 0.0005 h
- Elimination half-life ([4]; rabbit red blood cell): 0.437 ± 0.08 h
- Elimination half-life ([4]; rabbit whole blood): 0.248 ± 0.0217 h
- converted time of 90% into Nalbuphine ([4]; rabbits): 25 min
- half life ([4]; rabbits, HPLC): 7.0 min
- duration of analgesic effect calculated for human body (human body): 4 to 5 days

Source: patent publication US6225321A (priority 1997, dated 2001)
